# Results from EPA's ToxValDB 9.5.
# Legend:
# Mus musculus [1] = conditions: oral
# Rattus norvegicus [2] = conditions: oral
# Cricetulus sp. = conditions: for NOAEL: oral, gavage, Hamster
# Rattus norvegicus [3] = conditions: for LC50 / LD50: acute
# Canidae [4] = conditions: oral, diet, Dog Other
# Rattus norvegicus [5] = conditions: Hershberger, duration: 10 days, oral, gavage, Sprague-Dawley
# Canidae [6] = conditions: oral, diet, M/F, Dog Other
# Rattus norvegicus [7] = conditions: reproduction developmental, oral, M/F
# Rattus norvegicus [8] = conditions: oral; remark: listed apart in the source
# Oryctolagus sp. [9] = conditions: reproduction developmental; duration: 12 days; oral; gavage; M/F; New Zealand; gastrointestinal
# Rattus norvegicus [10] = test: LD100; higher = less toxic; conditions: acute; oral
# Mus musculus [11] = tested on: Mus musculus
# Oryctolagus sp. [12] = conditions: acute; dermal; New Zealand
# Neovison sp. = conditions: repeat dose other; oral; Mink
# Rattus norvegicus [13] = conditions: repeat dose other; oral
# Homo sapiens [14] = conditions: clinical; duration: 5 minutes; inhalation; M; respiratory
# Mus musculus [15] = conditions: chronic; oral; M/F; lung and kidney histopathology
# Homo sapiens [16] = conditions: clinical, oral, diet
# Mus musculus [17] = conditions: repeat dose other; oral
# Sus scrofa = conditions: oral, Not specified; for LOEL: duration: 14 weeks, M/F, Changes in serum testosterone and estradiol and testes weight
# [18] = short-term, duration: 28 days, gavage, M, Sprague-Dawley, Clinical Observation: Salivationlocomotor activity decrease, Soft stool/diarrhea + Urinalysis: Brownish urine Occult blood + Hematology: PT …
# [19] = chronic, duration: 2 years, renal tubular epithelial vacuolation
# [20] = increased incidence of renal tubular dilation in f3b offspring
# [21] = reproduction developmental, duration: 10 days, oral, gavage, F, CD1
# [22] = forelimb hair loss + Parturition mortality
# [23] = chronic, duration: 14 weeks, inhalation, F, Fischer 344
# [24] = chronic, duration: 14 weeks, inhalation, M, Fischer 344
# [25] = chronic, duration: 14 weeks, inhalation, F, B6C3F1
# [26] = chronic, duration: 14 weeks, inhalation, M, B6C3F1
compound,measurement,setting,value
O=CC(Cl)(Cl)Cl [Chloral],LOAEL,"Mus musculus [1]; subchronic, duration: 90 days, drinking water, Liver: Effects",15.7 mg/kg-day
COCCl [Chloromethyl methyl ether],NOEL,"Rattus norvegicus [2]; subchronic, duration: 42 days, gavage, M, CD(SD), Body Weight Changes: decrease + Food Consumption: decrease + Urinalysis: Osm decrease + Hematology: RET increase, WBC increase, LYMPH …",< 15 mg/kg-day
same,LC50,"Cricetulus sp.; acute, inhalation, Golden Syrian",214 mg/m3
same,LC50,"Rattus norvegicus [3]; inhalation, Sprague-Dawley",181 mg/m3
same,LD50,Rattus norvegicus [3]; oral,817 mg/kg
same,NOAEL,"Rattus norvegicus [3]; developmental, duration: 15 days, inhalation, Sprague-Dawley",132 mg/m3
same,NOAEL,"Rattus norvegicus [3]; reproduction developmental, duration: 10 days, inhalation, F, Sprague-Dawley",0.006 mg/L
N#Cc1c(Cl)c(Cl)c(Cl)c(C#N)c1Cl [Chlorothalonil],NOEL,"Canidae [4]; chronic, duration: 2 years, Kidney: Effects",1.5 mg/kg-day
same,NOAEL,Rattus norvegicus [2]; [18],< 100 mg/kg-day
same,NOEL,Rattus norvegicus [2]; [18],< 100 mg/kg-day
same,NOEL,Rattus norvegicus [5]; inactive + Negative + Negative + neither + see note,175 mg/kg-day
same,LEL,Canidae [6]; [19],3 mg/kg-day
same,NOEL,Canidae [6]; [19],1.5 mg/kg-day
O=C(O)CNCP(=O)(O)O [Glyphosate],NOEL,"Rattus norvegicus [2]; subchronic, diet, F, Fischer 344, Clinical Observation: Diarrhea + Body Weight Changes: decrease(>25000 ) + Hematology: Hct increase, RBC increase, Hgb increase + Blood …",213 mg/kg-day
same,NOEL,"Rattus norvegicus [2]; subchronic, diet, M/F, Fischer 344, Clinical Observation: Diarrhea + Body Weight Changes: decrease(>25000 ) + Hematology: Hct increase, RBC increase, Hgb increase + Blood …",< 300 mg/kg-day
same,NOEL,Rattus norvegicus [5]; inactive + Negative + Negative + neither + decrease in AST and liver at 1000 / decrease in bw 10% at 1000 / testosterone dose-dependent …,300 mg/kg-day
same,LEL,Rattus norvegicus [7]; [20],30 mg/kg-day
same,NOEL,Rattus norvegicus [7]; [20],10 mg/kg-day
same,NOAEL,"Rattus norvegicus [8]; chronic, duration: 24 months, diet, F, albino Sprague Dawley, gastrointestinal",113 mg/kg-day
same,NOAEL,"Rattus norvegicus [8]; chronic, duration: 24 months, diet, M/F, albino Sprague Dawley, gastrointestinal",113 mg/kg-day
same,NOAEL,Oryctolagus sp. [9],100 mg/kg-day
ClC1=C(Cl)[C@]2(Cl)[C@@H]3[C@@H](Cl)[C@H]4O[C@H]4[C@@H]3C1(Cl)C2(Cl)Cl [Heptachlor epoxide B],LOAEL,"Canidae [4]; chronic, duration: 60 weeks, Liver: Increased relative weight",0.0125 mg/kg-day
same,LEL,"Canidae [6]; chronic, duration: 60 weeks, increased liver-to-body weight ratio in both males and females",0.0125 mg/kg-day
Oc1c(Cl)cc(Cl)c(Cl)c1Cc1c(O)c(Cl)cc(Cl)c1Cl [Hexachlorophene],LOAEL,"Canidae [4]; subchronic, duration: 13 weeks, Nervous system: Effects",0.75 mg/kg-day
same,LEL,"Canidae [6]; subchronic, duration: 13 weeks, swollen salivary gland, status spongiosis in brain and optic nerve",0.75 mg/kg-day
CC(O)C(=O)O (stereo not given) [Lactic acid],LD100,Rattus norvegicus [10],11200 mg/kg
same,LC50,"Rattus norvegicus [3]; Inhalation, Fischer 344",> 7.94 µg/mL
same,LOAEL,"Rattus norvegicus [3]; subchronic, duration: 13 weeks, dermal, F, Sprague-Dawley",886 mg/kg-day
same,NOAEL,"Mus musculus [11]; reproduction developmental, duration: 10 days, oral, gavage, CD1, generation: F1",≥ 570 mg/kg-day
same,NOAEL,Mus musculus [11]; [21],≥ 570 mg/kg-day
same,LD50,Oryctolagus sp. [12],> 2000 mg/kg
[CH3][Hg][Cl] [Methylmercuric(II) chloride],LOAEL,Neovison sp.,0.025 mg/kg-day
same,NOAEL,Neovison sp.,0.015 mg/kg-day
same,LOAEL,Rattus norvegicus [13],0.16 mg/kg-day
same,NOAEL,Rattus norvegicus [13],0.032 mg/kg-day
[P] [Phosphorus],LOAEL,Rattus norvegicus [7]; [22],0.075 mg/kg-day
same,NOAEL,Rattus norvegicus [7]; [22],0.015 mg/kg-day
same,LOAEL,Homo sapiens [14],187 mg/m3
same,NOAEL,"Rattus norvegicus [8]; reproduction developmental, duration: 204 days, gavage, M/F, Sprague-Dawley, reproductive",0.015 mg/kg-day
O=C1OC(=O)c2ccccc21 [Phthalic anhydride],LOAEL,"Mus musculus [1]; chronic, duration: 104 weeks, diet, Kidney: Histopathology + Lung: Histopathology",1560 mg/kg-day
same,LOAEL,Mus musculus [15],1560 mg/kg-day
CCN(CC)c1nc(C)cc(OP(=S)(OC)OC)n1 [Pirimiphos-methyl],NOEL,"Homo sapiens [16]; duration: 28 days, M, Borderline ChE depression",0.25 mg/kg-day
same,NOEL,"Homo sapiens [16]; duration: 56 days, M/F, Transient plasma ChE depression",0.25 mg/kg-day
ClC(Cl)=C(Cl)Cl [Tetrachloroethylene],NOAEL,"Mus musculus [1]; subchronic, duration: 6 weeks, Liver: Hepatotoxicity",14 mg/kg-day
same,LOAEL,Mus musculus [17],7 mg/kg-day
same,NOAEL,Mus musculus [17],1.4 mg/kg-day
CC(=O)O[C@H]1CC[C@H]2[C@@H]3CCC4=CC(=O)CCC4=C3C=C[C@]12C [Trenbolone acetate],LOEL,"Sus scrofa; chronic, diet",0.002 mg/kg-day
same,LOEL,Sus scrofa; feed,2 µg/kg-day
CC1=C[C@H]2O[C@@H]3[C@H](O)C[C@](C)([C@@]2(CO)[C@H](O)C1=O)[C@@]31CO1 [Vomitoxin],NOEL,"Sus scrofa; repeat dose other, diet, Emesis",0.25 mg/kg-day
CC1=CCC2CC1C2(C)C (stereo not drawn) [alpha-Pinene],NOAEL,"Cricetulus sp.; developmental, duration: 10 days",600 mg/kg-day
same,NOAEL,"Cricetulus sp.; reproduction developmental, duration: 10 days, F",600 mg/kg-day
same,NOAEL,Cricetulus sp.; reproduction developmental,600 mg/kg-day
same,LD50,"Rattus norvegicus [3]; oral, Wistar",3700 mg/kg
same,LOAEL,Rattus norvegicus [3]; [23],340 mg/kg-day
same,NOAEL,Rattus norvegicus [3]; [23],170 mg/kg-day
same,LOAEL,Rattus norvegicus [3]; [24],42 mg/kg-day
same,NOAEL,Rattus norvegicus [3]; [24],21 mg/kg-day
same,NOAEL,"Rattus norvegicus [3]; developmental, duration: 10 days, oral, gavage, Wistar",260 mg/kg-day
same,NOAEL,"Rattus norvegicus [3]; reproduction developmental, duration: 10 days, oral, gavage, F, Wistar",260 mg/kg-day
same,LOAEL,Mus musculus [11]; [25],557 mg/m3
same,NOAEL,Mus musculus [11]; [25],279 mg/m3
same,LOAEL,Mus musculus [11]; [26],557 mg/m3
same,NOAEL,Mus musculus [11]; [26],279 mg/m3
same,NOAEL,Mus musculus [11]; [21],560 mg/kg-day
same,LD50,Oryctolagus sp. [12],> 5000 mg/kg
